From patent publication EP0508511B1 (KNOLL AG, priority 1991, dated 1992) come the findings set out here.

The subject of this assay is wacher normotoner Hunde. The assay is described as follows: Diastolic blood pressure in conscious normotensive dogs. In kind it is in vivo. The following applies: Trandolapril alone, 3 mg/kg/Tag.

In the case of `CCOC(=O)[C@H](CCc1ccccc1)N[C@@H](C)C(=O)N1[C@H](C(=O)O)C[C@H]2CCCC[C@@H]21` [Trandolapril, N-(1s-Carbethoxy-3-phenylpropyl)-S-alanyl-2S,3aR,7aS-octa-hydroindol-2-carbonsäure], the “Senkung des diastolischen Blutdruckes” value was “weder Verapamil-SR allein (10 mg/kg/Tag) noch Trandolapril allein (3 mg/kg/Tag) den diastolischen Blutdruck wacher normotoner Hunde zu senken vermögen”.
